Assay results published in US20120083522A1, “MODULATION OF INFLAMMATORY RESPONSES BY FACTOR XI” (Isis Pharmaceuitcals, inc., priority 2009, published 2012).
In the oligonucleotide strings, read from the 5' end, every base follows the letter of its sugar. An asterisk marks phosphorothioate; unmarked linkages are phosphodiester. Other units and linkages are bracketed, terminal groups are in braces. A string of capitals states the bases alone. e = 2'-O-(2-methoxyethyl) (MOE); [5mC] = 5-methylcytosine; d = 2'-deoxy (DNA)

Experiments:
human Factor XI mRNA = assay: Dose-dependent inhibition and IC50 in HepG2 cells, microwalk gapmers, electroporation (Example 16); format: cell-based
Experimental: These gapmers were tested at various doses in HepG2 cells. Cells were plated at a density of 20,000 cells per well and transfected using electroporation with 375 nM, 750 nM, 1,500 nM, 3,000 nM, 6,000 nM and 12,000 nM concentrations of antisense oligonucleotide, as specified in Table 54. After a treatment period of approximately 16 hours, RNA was isolated from the cells and Factor XI mRNA levels were measured by quantitative real-time PCR. Human Factor XI primer probe set RTS 2966 was used to measure mRNA levels. Factor XI mRNA levels were adjusted according to total RNA content, as measured by RIBOGREEN. Results are presented as percent inhibition of Factor XI, relative to untreated control cells.
ISIS 416850, ISIS 416858, ISIS 445522, and ISIS 445531 (see Table 52 above) were re-tested in vitro along with the microwalk gapmers under the same conditions described above.
The chimeric antisense oligonucleotides in Table 53 were designed as 3-8-3 MOE, 4-8-4 MOE, 2-10-2 MOE, 3-10-3 MOE, or 4-10-4 MOE gapmers. The 3-8-3 gapmer is 14 nucleotides in length, wherein the central gap segment is comprised of eight 2′-deoxynucleotides and is flanked on both sides (in the 5′ and 3′ directions) by wings comprising three nucleotides each. The 4-8-4 gapmer is 16 nucleotides in length, wherein the central gap segment is comprised of eight 2′-deoxynucleotides and is flanked on both sides (in the 5′ and 3′ directions) by wings comprising four nucleotides each. The 2-10-2 gapmer is 14 nucleotides in length, wherein the central gap segment is comprised of ten 2′-deoxynucleotides and is flanked on both sides (in the 5′ and 3′ directions) by wings comprising two nucleotides each. The 3-10-3 gapmer is 16 nucleotides in length, wherein the central gap segment is comprised of ten 2′-deoxynucleotides and is flanked on both sides (in the 5′ and 3′ directions) by wings comprising three nucleotides each. The 4-10-4 gapmer is 18 nucleotides in length, wherein the central gap segment is comprised of ten 2′-deoxynucleotides and is flanked on both sides (in the 5′ and 3′ directions) by wings comprising four nucleotides each. For each of the motifs (3-8-3, 4-8-4, 2-10-2, 3-10-3, and 4-10-4), each nucleotide in the 5′ wing segment and each nucleotide in the 3′ wing segment has a 2′-MOE modification. The internucleoside linkages throughout each gapmer are phosphorothioate (P═S) linkages. All cytidine residues throughout each gapmer are 5-methylcytidines. “Human Target start site” indicates the 5′-most nucleotide to which the gapmer is targeted in the human sequence. “Human Target stop site” indicates the 3′-most nucleotide to which the gapmer is targeted in the human sequence. Each gapmer listed in Table 53 is targeted to SEQ ID NO: 1 (GENBANK Accession No. NM_000128.3). Each gapmer is Table 53 is also fully cross-reactive with the rhesus monkey Factor XI gene sequence, designated herein as SEQ ID NO: 274 (exons 1-15 GENBANK Accession No. NW—001118167.1). ‘Rhesus monkey start site’ indicates the 5′-most nucleotide to which the gapmer is targeted in the rhesus monkey sequence. ‘Rhesus monkey stop site’ indicates the 3′-most nucleotide to which the gapmer is targeted to the rhesus monkey sequence.
The first two listed gapmers in Table 54 are the original gapmers (ISIS 416850 and ISIS 416858) from which the remaining gapmers were designed via microwalk and are designated by an asterisk.

Factor XI mRNA = assay: Cynomolgus monkeys, 25 mg/kg: liver Factor XI RNA analysis (Example 30); format: in vivo; conditions: 25 mg/kg s.c.; day 55; liver
Experimental: (§1) Groups, each consisting of two male and two female monkeys, were injected subcutaneously with 25 mg/kg of ISIS 416850, ISIS 449709, ISIS 445522, ISIS 449710, ISIS 449707, ISIS 449711, ISIS 449708, 416858 and ISIS 445531. Antisense oligonucleotide was administered to the monkeys at 25 mg/kg three times per week for week 1 and 25 mg/kg twice per week for weeks 2 to 8. A control group, consisting of two male and two female monkeys was injected subcutaneously with PBS according to the same dosing regimen. Body weights were taken 14 days and 7 days before the start of treatment and were then measured weekly throughout the treatment period. Blood samples were collected 14 days and 5 days before the start of treatment and subsequently several times during the dosing regimen for measurement of various hematologic factors. On day 55, the monkeys were euthanized by exsanguination while under deep anesthesia, and organs harvested for further analysis.
On day 55, RNA was extracted from liver tissue for real-time PCR analysis of Factor XI using primer probe set LTS00301. Results are presented as percent inhibition of Factor XI, relative to PBS control.

Factor XI protein = assay: Cynomolgus monkeys: plasma Factor XI protein ELISA (Example 30); format: in vivo; conditions: 25 mg/kg s.c., plasma ELISA
Experimental: as §1
Plasma samples from all monkey groups taken on different days were analyzed by a sandwich-style ELISA assay (Affinity Biologicals Inc.) using an affinity-purified polyclonal anti-Factor XI antibody as the capture antibody and a peroxidase-conjugated polyclonal anti-Factor XI antibody as the detecting antibody. Monkey plasma was diluted 1:50 for the assay. Peroxidase activity was expressed by incubation with the substrate o-phenylenediamine. The color produced was quantified using a microplate reader at 490 nm and was considered to be proportional to the concentration of Factor XI in the samples.
The results are presented in Table 148, expressed as percentage reduction relative to that of the PBS control.

[1] = Tolerability in CD1 mice: body and organ weights (Example 21); format: in vivo; conditions: 50 mg/kg s.c. twice per week for 6 weeks, percentage of the body weight
Experimental: Body weight was measured at the onset of the study and subsequently twice per week. The body weights of the mice are presented in Table 87 and are expressed increase in grams over the PBS control weight taken before the start of treatment. Liver, spleen, and kidney weights were measured at the end of the study, and are also presented in Table 87 as percentage of the body weight.

[2] = Tolerability in Sprague-Dawley rats: hematology assays (Example 23); format: in vivo; design: RBC / WBC / Neutrophil / Lymphocyte / Platelets: unit not given here; conditions: blood
[3] = Tolerability in CD1 mice: body and organ weight (Example 25); format: in vivo; conditions: 50 mg/kg s.c. twice per week for 6 weeks; for Kidney weight as percentage of body weight / Liver weight as percentage of body weight / Spleen weight as percentage of body weight: end of study

| Substance | percent inhibition of Factor XI mRNA (human Factor XI mRNA; electroporation, 375 nM) [%] | percent inhibition of Factor XI mRNA (human Factor XI mRNA; electroporation, 750 nM) [%] | percent inhibition of Factor XI mRNA (human Factor XI mRNA; electroporation, 1,500 nM) [%] | percent inhibition of Factor XI mRNA (human Factor XI mRNA; electroporation, 3,000 nM) [%] | percent inhibition of Factor XI mRNA (human Factor XI mRNA; electroporation, 6,000 nM) [%] | percent inhibition of Factor XI mRNA (human Factor XI mRNA; electroporation, 12,000 nM) [%] | % inhibition of Factor XI mRNA in liver relative to the PBS control (Factor XI mRNA) [%] | Inhibition of Factor XI protein relative to the PBS control (Factor XI protein; Day 10) [%] | Inhibition of Factor XI protein relative to the PBS control (Factor XI protein; Day 17) [%] | Inhibition of Factor XI protein relative to the PBS control (Factor XI protein; Day 24) [%] | Inhibition of Factor XI protein relative to the PBS control (Factor XI protein; Day 31) [%] | Inhibition of Factor XI protein relative to the PBS control (Factor XI protein; Day 38) [%] | Inhibition of Factor XI protein relative to the PBS control (Factor XI protein; Day 45) [%] | Inhibition of Factor XI protein relative to the PBS control (Factor XI protein; Day 52) [%] | Inhibition of Factor XI protein relative to the PBS control (Factor XI protein; Day 55) [%] | Inhibition of Factor XI protein relative to the PBS control (Factor XI protein; Day −5) [%] | Inhibition of Factor XI protein relative to the PBS control (Factor XI protein; Day −14) [%] | Body weight (increase over PBS control weight before start of treatment) [3] [g] | Kidney weight as percentage of body weight [3] [%] | Liver weight as percentage of body weight [3] [%] | further results |
| --- | --- | --- | --- | --- | --- | --- | --- | --- | --- | --- | --- | --- | --- | --- | --- | --- | --- | --- | --- | --- | --- |
| 449707 (antisense e[5mC]*eA*e[5mC]*eA*dG*dT*dT*dT*d[5mC]*dT*dG*dG*e[5mC]*eA*eG*eG) [compound 449707] | 7 | 35 | 63 | 73 | 85 | 91 | 47 | 16 | 19 | 21 | 29 | 28 | 35 | 29 | 32 | 0 | 0 |  |  |  |  |
| 449708 (antisense eA*e[5mC]*eA*dG*dT*dT*dT*d[5mC]*dT*dG*dG*e[5mC]*eA*eG) [compound 449708] | 0 | 0 | 22 | 33 | 61 | 85 | 46 | 7 | 15 | 3 | 14 | 9 | 2 | 6 | 6 | 0 | 1 |  |  |  |  |
| 449709 (antisense eG*e[5mC]*eA*e[5mC]*dA*dG*dT*dT*dT*d[5mC]*dT*dG*dG*d[5mC]*eA*eG*eG*e[5mC]) [compound 449709] | 52 | 71 | 80 | 87 | 92 | 95 | 69 | 27 | 35 | 44 | 45 | 46 | 48 | 47 | 50 | 0 | 1 |  |  |  |  |
| 449710 (antisense e[5mC]*eA*e[5mC]*dA*dG*dT*dT*dT*d[5mC]*dT*dG*dG*d[5mC]*eA*eG*eG) [compound 449710] | 2 | 21 | 52 | 70 | 82 | 87 | 52 | 10 | 14 | 17 | 25 | 20 | 23 | 4 | 24 | 0 | 1 |  |  |  |  |
| ISIS 416856: gapmer of Table 8 (antisense eG*eG*e[5mC]*eA*eT*dT*dG*dG*dT*dG*d[5mC]*dA*d[5mC]*dA*dG*eT*eT*eT*e[5mC]*eT) |  |  |  |  |  |  |  |  |  |  |  |  |  |  |  |  |  |  |  |  | Kidney weight [1]: 1.4%; RBC [2]: 7.7; WBC [2]: 19 |
| ISIS 445509: microwalk gapmer of Table 51 (antisense e[5mC]*eG*eG*eA*e[5mC]*eG*dG*d[5mC]*dA*dT*dT*dG*dG*dT*eG*e[5mC]*eA*e[5mC]*eA*eG) |  |  |  |  |  |  |  |  |  |  |  |  |  |  |  |  |  | 10 | 1.6 | 6 | Spleen weight as percentage of body weight [3]: 0.5% |
| ISIS 445513: microwalk gapmer of Table 51 (antisense eG*e[5mC]*eA*eG*e[5mC]*eG*dG*dA*d[5mC]*dG*dG*d[5mC]*dA*dT*eT*eG*eG*eT*eG*e[5mC]) |  |  |  |  |  |  |  |  |  |  |  |  |  |  |  |  |  | 9 | 1.6 | 5 | Spleen weight as percentage of body weight [3]: 0.4% |
| ISIS 445530: microwalk gapmer of Table 51 (antisense eG*e[5mC]*eA*eT*eT*dG*dG*dT*dG*d[5mC]*dA*d[5mC]*dA*eG*eT*eT*eT*e[5mC]) |  |  |  |  |  |  |  |  |  |  |  |  |  |  |  |  |  | 11 | 1.5 | 6 | Spleen weight as percentage of body weight [3]: 0.5% |
| ISIS 445532: microwalk gapmer of Table 51 (antisense e[5mC]*eG*eG*e[5mC]*eA*dT*dT*dG*dG*dT*dG*d[5mC]*dA*e[5mC]*eA*eG*eT*eT) |  |  |  |  |  |  |  |  |  |  |  |  |  |  |  |  |  | 10 | 1.6 | 6 | Spleen weight as percentage of body weight [3]: 0.4% |
